Measured values reported in ChEMBL document CHEMBL1201862, “PubChem BioAssay data set” (2004).
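Results reflect a 48-hour exposure of cells in 96-well plates to compound at five concentrations. The concentration for 50% growth inhibition is given as GI50.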 Active and inactive are the calls of the source. No stated cut-off is given here; in the data, active = GI50 up to about 1.1 µM and inactive = higher.

Tested on: T47D
Test: inhibition of tumour cell growth, NCI panel, 48 h

Structure (SMILES) | GI50
CO[C@@H]1C[C@H](OC(N)=O)[C@@H]2C=C[C@@H]3/C=C(C)/C=C/[C@@H](C)[C@H](/C(C)=C/[C@@H](C)NC(C)=O)OC(=O)/C=C/C=C(C)\C=C\[C@]3(C)[C@@H]2C1 [SUPERSTOLIDE B] | < 0.005 µM (active)
OCCCNCc1ccncc1 | > 100 µM (inactive)
COc1cc(C2C3=C(COC3=O)Oc3cc4c(cc32)OCO4)ccc1O (stereo not given) | 0.49 µM (active)
CCCC(=O)N1CCN(c2ccc3c(c2)OC(C)O3)CC1 (stereo not given) | > 100 µM (inactive)
Cc1ccc(/C=N/n2c(=O)[nH]c3ccccc3c2=O)cc1 | > 100 µM (inactive)
Cc1nc(C(N)=S)sc1C(=O)C/C(=N/N)C(=O)Nc1cccc(Cl)c1C | > 100 µM (inactive)
O=S(=O)(NC1OCCCC1I)c1ccccc1 (stereo not given) | > 100 µM (inactive)
CCCCCCCC(=O)OC[n+]1cccc(-c2c(COC(=O)NC(C)C)c(COC(=O)NC(C)C)c3n2CCC3)c1 | > 93.3 µM (inactive)
CCOC(=O)C1(Cc2ccc3c(c2)CCC3)Cc2cc3c(cc2C1)CCC3 | 17.7 µM (inactive)
O[C@]12C=C(c3nccc4c3[nH]c3ccccc34)[C@@H]3CCN(CCCC/C=C\CC1)C[C@@]31CC3/C=C\CCCCN3[C@H]12 (stereo not given in full) | 0.34 µM (active)
N/C(=N\Nc1cccc(Cl)c1)c1cccnc1 | 18.9 µM (inactive)
CC(C)(C)c1ccc(O)c(CN(Cc2cc(C(C)(C)C)ccc2O)c2ccccc2)c1 | 15.8 µM (inactive)
CC(=O)Nc1ccc2c3c(cc(O)c2c1)N(C(=O)CCCCCC(=O)N1CC(CCl)c2c1cc(O)c1cc(NC(C)=O)ccc21)CC3CCl (stereo not given) | < 0.01 µM (active)
CCCCCCCN(CCCCCCC)CC(O)c1cc2ccccc2c2cc(Br)ccc12 (stereo not given) | 43 µM (inactive)
CC1=C(CCC(C)CO)O[C@H]2C[C@H]3[C@@H]4CC[C@H]5C[C@@H](O)CC[C@]5(C)[C@H]4CC(=O)[C@]3(C)[C@@H]12 (stereo not given in full) | 7.03 µM (inactive)
O=C(N/N=C\c1ccc([N+](=O)[O-])s1)c1ccncc1 | 21.2 µM (inactive)
O=C(O)c1cscc1Cc1cccs1 | > 100 µM (inactive)
NC(=S)Nc1nc(=S)[nH]c2c1SC1=N/C(=C\c3ccco3)C(=O)N12 | 61.8 µM (inactive)

Structure (SMILES) | GI50
Cn1ncc(NCCn2cnc3c2c(=O)n(C)c(=O)n3C)c(Cl)c1=O | > 100 µM (inactive)
Clc1ccc(C(c2ccc(Cl)cc2)N2CCNCC2)cc1 | 2.04 µM (inactive)
CC1CN=C(Nc2ccccc2)S1 (stereo not given) | > 100 µM (inactive)
O=[N+]([O-])c1cccc(-c2nc(-c3ccccc3)c(-c3ccccc3)[nH]2)c1 | > 100 µM (inactive)
Nc1nc(SCC(=O)O)nc(O)c1N | > 100 µM (inactive)
CC[C@H](CO)Nc1nc(NCc2ccccc2)c2ncn(C(C)C)c2n1 [SELICICLIB] | 16.3 µM (inactive)
O=C1OC[C@H]2[C@@H]1[C@H]1O[C@@H]2C2=C(CCC2)C1=O | > 100 µM (inactive)
CC(=O)N1C(CCc2ccccc2)CC(C)(C=O)C1Cc1ccc(O[Si](C(C)C)(C(C)C)C(C)C)cc1 (stereo not given) | 2.2 µM (inactive)
CCN1C[C@]2(C)CC[C@H](OC)C34C5C[C@@H]6[C@@H](OC)C[C@@](OC)(C5[C@H]6OCc5ccccc5)C(C13)[C@H](OC(C)=O)[C@@H]42 (stereo not given in full) | > 100 µM (inactive)
C=C1CC2(C[C@@H](c3ccccc3)O[C@@H](c3ccccc3)C2)OC1=O (stereo not given in full) | 1.85 µM (inactive)
C[NH+]1[C@@H](Cc2ccccc2)C(=O)O[B-]1(F)c1ccccc1 (stereo not given in full) | > 100 µM (inactive)
Fc1ccc(Nc2nc(Cl)c3nc[nH]c3n2)cc1Cl | 38.5 µM (inactive)
CCOC(=O)Oc1ccc2c(c1)c(=O)c1c(NCCN(CC)CC)ccc3nnn2c31 | 14.8 µM (inactive)
Cc1ccc(C[N+](C)(C)N)cc1C | > 10 µM (inactive)
CC(=O)N1C(=O)c2cc3ccccc3cc21 | > 100 µM (inactive)
CC1OC(OC2C(O[C@H]3CC[C@@]4(C)C(=CC[C@H]5[C@@H]6C[C@@H]7O[C@]8(CC[C@@H](CO)CO8)[C@@H](C)[C@@H]7[C@@]6(C)CC[C@@H]54)C3)OC(CO)C(O)C2OC2OC(CO)C(O)C(O)C2O)C(O)C(O)C1O (stereo not given in full) | 1.87 µM (inactive)
COc1ccc(-c2c3c(n(C4OC(CO)C(O)C(O)C4O)c(=S)c2C#N)CCCC3)cc1 (stereo not given) | 58.5 µM (inactive)
